Experimental data: patent publication US6716628B2, “Chondrogenesis promoters and indolin-2-one derivatives” (Chugai Seiyaku Kabushiki Kaisha, priority 1999, dated 2004)

Legend:
[1] = tested on: common mouse chondrocyte and adipocyte precursor cell line (CL-1); experiment: Uptake of 35S-labeled sulfuric acid into CL-1; type: cell-based; conditions: 10 μmol/L (A and F also 1 or 5 μmol/L), 48 h culture
[2] = tested on: common mouse chondrocyte and adipocyte precursor cell line (CL-1); experiment: Uptake of 35S-labeled sulfuric acid into CL-1; type: cell-based; conditions: 10 μmol/L (A and F also 1 or 5 μmol/L), 48 h culture, uptake in final 24 h
Method: The above-mentioned cell line CL-1 was cultured in a 96-well cell culturing plate (Wallac Corp.) for a liquid scintillation counter (Wallac Corp.) to a cell density of 1000 per well. The medium used was α-MEM (GIBCO Corp.) containing 100 U/mL of penicillin (Meiji Seika Co., Ltd.), 100 μg/mL of streptomycin (Banyu Pharmaceutical Corp.) and 10% fetal bovine serum (INTERGEN Corp.). When the CL-1 cells reached confluency, the medium was exchanged with one containing 10 μmol/L of compounds A, B, C, D, E, F and G, and after 24 hours, ^35S-labeled sulfuric acid was added at 0.5 μCi per well and culturing was continued. For compounds A and F, a medium was also prepared with a concentration of 1 or 5 μmol/L. After 24 hours, the medium was discarded and the cell layer was fixed for 2 hours at room temperature using 0.2 mL of 5% paraformaldehyde (0.1 mol/L phosphate buffer solution (pH 7.4, Wako Pure Chemical Industries) containing 0.4% cetylpyridinium chloride (Wako Pure Chemical Industries). After discarding the fixing solution, it was washed once with the same solution and the washed solution was discarded. After adding 0.1 mL of scintillator (Wallac Corp.) to the cell layer and stirring, the radioactivity was measured with a scintillation counter (Wallac Corp.).

[3] = tested on: articular cartilage; conditions: cited from earlier work
[4] = tested on: experimental animal models with induced arthritis; conditions: administered intraarticularly; Lab. Invest. 78(2):133-142, 1998; cited from earlier work

| Compound | differentiation of CL-1 to adipocytes [1] | differentiation of CL-1 to chondrocytes (from 35S-labeled sulfuric acid uptake) [2] | synovitis ([3]; in vivo) | arthritis-induced loss of proteoglycans in articular cartilage [4] | chondrogenesis ([3]; intraarticularly administered, Lab. Invest. 71(2):279-290, 1994) |
| --- | --- | --- | --- | --- | --- |
| 3R)-1-(2,2-diisopropoxyethyl)-3-((4-methylphenyl) aminocarbonylmethyl)-3-(N′-(4-methylphenyl)ureido)indolin-2-one [Compound E] | clearly suppress | clearly promote |  |  |  |
| CCOC(CN1C(=O)[C@](CC(=O)Nc2ccc(CC)cc2)(NC(=O)Nc2ccc(C)cc2)c2ccccc21)OCC [Compound B, (3R)-1-(2,2-diethoxyethyl)-3-(4-ethylphenyl)aminocarbonylmethyl-3-(N′-(4-methylphenyl)ureido)indolin-2-one] | clearly suppress | clearly promote |  |  |  |
| CCOC(CN1C(=O)[C@](CC(=O)Nc2ccc(N(C)C)cc2)(NC(=O)Nc2ccc(C)cc2)c2ccccc21)OCC [Compound C] | clearly suppress | clearly promote |  |  |  |
| COC(CN1C(=O)C(CC(=O)Nc2ccc(C)cc2)(NC(=O)Nc2ccc(C)cc2)c2ccccc21)OC (stereo not drawn) [Compound D] | clearly suppress | clearly promote |  |  |  |
| Cc1ccc(NC(=O)C[C@]2(NC(=O)Nc3ccc(C)cc3)C(=O)N(CC(OCCF)OCCF)c3ccccc32)cc1 [Compound F] | clearly suppress | clearly promote |  |  |  |
| Cc1ccc(NC(=O)C[C@]2(NC(=O)Nc3ccc(C)cc3)C(=O)N(CC(OCCCl)OCCCl)c3ccccc32)cc1 [Compound G, 3R)-1-(2,2-bis(2-chloroethoxy)ethyl)-3-((4-methylphenyl) 3-(N′-(4-methylphenyl)ureido)indolin-2-one] | clearly suppress | clearly promote |  |  |  |
| TGF-β |  |  | provoke synovitis |  |  |
| TGF-β1: one isoform of TGF-β (Transforming growth factor β) |  |  |  | suppresses | promote chondrogenesis |
